Target: T1, porcine pancreatic lipase (Sus scrofa, UniProt P00591)
T1 construct: purchased Sigma
T1 sequence (P00591 1-450): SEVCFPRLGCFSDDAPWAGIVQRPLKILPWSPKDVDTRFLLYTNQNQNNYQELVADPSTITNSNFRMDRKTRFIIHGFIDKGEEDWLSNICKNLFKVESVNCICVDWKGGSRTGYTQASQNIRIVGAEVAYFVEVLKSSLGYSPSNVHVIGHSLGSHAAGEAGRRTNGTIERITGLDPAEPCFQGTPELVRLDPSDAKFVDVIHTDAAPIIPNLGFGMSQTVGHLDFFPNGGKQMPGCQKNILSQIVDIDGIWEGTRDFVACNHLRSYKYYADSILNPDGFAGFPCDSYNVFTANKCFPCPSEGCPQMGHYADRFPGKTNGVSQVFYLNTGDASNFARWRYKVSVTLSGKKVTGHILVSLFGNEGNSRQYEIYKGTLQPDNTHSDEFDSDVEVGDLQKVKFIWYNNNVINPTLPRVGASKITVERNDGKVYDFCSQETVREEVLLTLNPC
Assay: Lipase inhibitory activity measurement (4-UMO fluorescence substrate)
Type: biochemical
Details: for IC50: 4-UMO substrate, pH 8.0, 25 degrees, 30 minutes of reaction; for lipase inhibitory activity (in words): summary of Table 1
Protocol: Lipase activity measurement was carried out by using oleic acid ester of fluorescence 4-methylumbelliferone (4-UMO) as a substrate, and measuring the fluorescence of 4-methylumbelliferone produced by reaction.
Substrate 4-UMO (Sigma) is prepared as 0.1 M solution in DMSO and diluted 1000 times with the buffer mentioned above. Similarly, lipase (porcine pancreatic lipase (Sigma)) is prepared as 400 U/ml solution in the buffer mentioned above and used in enzymatic measurement.
50 μl of 4-UMO buffer solution and 25 μl of distilled water (or sample solution) are placed in 96 well microplate and mixed at 25 degrees, followed by adding 25 μl of lipase buffer solution to start enzyme reaction. After 30 minutes of reaction, 100 μl of 0.1 M citric acid buffer (pH 4.2) was added to terminate the reaction, and fluorescence of 4-methylumbelliferone (excitation wavelength: 355 nm, fluorescence wavelength: 460 nm) produced by the reaction was measured with a fluorescence plate reader (Labsystems, Fluoroskan Asent CF).

Compound	IC50 [nM]	lipase inhibitory activity (in words)
O=C(OC[C@H]1OC(OC(=O)c2cc(O)c(O)c(O)c2)[C@H](OC(=O)c2cc(O)c(O)c(O)c2)[C@@H](O)[C@@H]1OC(=O)c1cc(O)c(O)c(O)c1)c1cc(O)c(O)c(O)c1 (some centres unmarked) [1,2,4,6-tetra-GA-Glc (6), 1,2,4,6-tetragalloylglucose]	203	showed lipase inhibitory activity
O=C(OCC1OC(OC(=O)c2cc(O)c(O)c(O)c2)C(O)C(O)C1OC(=O)c1cc(O)c(O)c(O)c1)c1cc(O)c(O)c(O)c1 [1,4,6-tri-O-galloyl-D-glucose (4), 1,4,6-tri-O-galloyl-D-glucose]	1230	showed lipase inhibitory activity
O=C(O)c1cc(O)c(O)c(O)c1 [Galli acid (1), Gallic acid, reference compound]	> 50000	showed no activity
O=C(O[C@H]1[C@@H]2OC(=O)c3cc(O)c(O)c(O)c3-c3c(cc(O)c(O)c3O)C(=O)OC[C@H]2OC(O)[C@@H]1OC(=O)c1cc(O)c(O)c(O)c1)c1cc(O)c(O)c(O)c1 (some centres unmarked) [Tellimagrandin1 (7), Tellimagrandin 1]	127	showed lipase inhibitory activity
O=C(O[C@@H]1O[C@@H]2COC(=O)c3cc(O)c(O)c(O)c3-c3c(cc(O)c(O)c3O)C(=O)O[C@H]2[C@H](OC(=O)c2cc(O)c(O)c(O)c2)[C@H]1OC(=O)c1cc(O)c(O)c(O)c1)c1cc(O)c(O)c(O)c1 [Tellimagrandin2 (8), Tellimagrandin 2]	74	showed lipase inhibitory activity
O=C(O[C@@H]1O[C@@H]2COC(=O)c3cc(O)c(O)c(O)c3-c3c(cc(O)c(O)c3O)C(=O)O[C@H]2[C@H](O)[C@H]1O)c1cc(O)c(O)c(O)c1 [strictinin (5), strictinin]	472	showed lipase inhibitory activity
O=C(O[C@@H]1C[C@](O)(C(=O)O)C[C@@H](O)[C@H]1O)c1cc(O)c(O)c(O)c1 [theogallin (3), theogallin]	> 50000	
O=C(O[C@@H]1O[C@H](CO)[C@@H](O)[C@H](O)[C@H]1O)c1cc(O)c(O)c(O)c1 [β-glucogallin (2), β-glucogallin]	> 50000	

Reference: patent publication US7754695B2, “Lipase inhibitors” (Suntory Holdings Limited, priority 2004, dated 2010)
